Measurements taken from patent publication US6083958A, “Anti-HIV composition containing imidazole derivative” (Shionogi & Co., Ltd., priority 1996, dated 2000).
Values after ≈ are worked out from the molar mass of the structure shown.

Tests used:
[1] = system: HIV-1 IIIB strain clone 3; assay: Suppression of the emergence of drug resistant variants in M 8166 cells; assay type: cell-based; conditions: for Week of emergence of resistant mutants: CDIMI 1 ng/ml, ddC 50 ng/ml at start, doubled on viral growth; for Ratio of resistance compared to parent strain: isolated resistant virus vs parent strain
Description: an T cell line Molt-4 cells persistently infected with HIV-1 (IIIB strain clone 3) were cultured in RPMI-1640 medium supplemented with 10% fetal calf serum, the supernatant was filtered and stored at […], after the virus titer was determined.
One ml of the above medium containing 10^6 cells of M 8166 was added to each well of 12-well plates, and 100 μl of the above HIV-1 IIIB strain clone 3 was added, and incubated for 2 hours for virus infection. Cells were washed with the above medium, and 4 ml of the medium containing CDIMI or other anti-HIV compounds alone or their combination was added to each well and incubated in 5% CO2 incubator at 37° C. CDIMI was added at 1 ng/ml and ddC was added at 50 ng/ml respectively and the same concentrations of them were added for the combination. Cells were subcultured twice a week, and when viral growth was observed, the drug concentration of the anti-HIV compound was doubled. In the case that no viral growth was observed, the drug concentration was kept the same as that of the last culture.
Virus titer was determined using viral reverse transcriptase activity as a marker by the following method.
To 100 μl of the reaction mixture containing 50 mM Tris-HCl, pH 8.3, 150 mM KCl, 10 mM MgCl2, 0.1% Nonidet P-40, 10 mM dithiothreitol, 5 μg/ml poly(A), 5 μg/ml (dT) 12-18, and 1 μCi [^3 H] dTTP was added 10 μl of the culture supernatant, and incubated at 37° C. for 3 hours. The reaction mixture was chilled on ice and collected by a cell harvester on a DEAE-Filtermat. The filter was washed with 5% Na2 HP04.12H2 O and H2 O, and the radioactivity incorporated in DNA was measured by an LKB Beta Plate scintillation counter to determine viral reverse transcriptase activity.
When virus growth was observed, viruses were isolated and the sensitivity to each active ingredient was assayed by the usual method.

[2] = system: HIV-1 (IIIB strain clone 2); assay: Synergy of anti-HIV activity, viral reverse transcriptase activity in supernatant of infected MT-4 cells (checker board); assay type: cell-based
Description: Human T cell line Molt-4 cells persistently infected with HIV-1 (IIIB strain clone 2) were cultured in RPMI-1640 medium supplemented with 10% fetal calf serum, and the supernatant was filtered and stored at -80° C. after the virus titer was determined.
The combination of these two drugs was conducted by the checker board method using 96-well microplates. […] After 4 hours, 50 μl of the culture supernatant of the above HIV-1 IIIB strain clone 2 was added, at the same time 50 μl of CDIMI in two-fold dilution was also added, followed by incubation in 5% CO2 incubator at 37° C. for 5 days.
Virus titers in the culture supernatant were calculated by taking viral reverse transcriptase activity as an index determined by the following method:
To 100 μl of a reaction mixture containing 50 mM Tris-HCl, pH 8.3, 150 mM KCl, 10 mM MgCl2, 0.1% Nonidet P-40, 10 mM dithiothreitol, 5 μg/l poly(A), 5 μg/ml (dT)12-18, and 1 μCi [^3 H]dTTP was added 10 μl of the culture supernatant, and incubated at 37° C. for 3 hours. The reaction mixture was chilled on ice and transferred by a cell harvester to a DEAE-Filtermat. The filter was washed with 5% Na2 HPO4.12H2 O and H2 O, and the radioactivity incorporated in DNA was measured by an LKB Beta Plate scintillation counter to determine viral reverse transcriptase activity.
On the assumption that the inhibition of the two anti-HIV compounds was additive, virus growth inhibition rate was calculated on all combinations of concentrations according to the formula (I)
wherein Z means an additive inhibition rate, X is an inhibition rate of CDIMI and Y is an inhibition rate of the other anti-HIV compound.
When the measured value is greater than the additive inhibition rate, namely, the value is more than 0 in Table 3, it is judged as having synergy. Synergy volume is designated as total sum of values more than 0 in Table 3.
Addition to cells of saquinavir and foscarnet was done at the same time as that of CDIMI when the virus was infected. […]

[3] = system: CDIMI resistant or AZT resistant mutant clones of HIV; assay: Cross resistance of CDIMI resistant and AZT resistant mutant clones; assay type: cell-based
Description: (§1) The mutant clones' cDNAs were transfected to SW480 cells. The produced mutant viruses were infected to MT-4 cells in the same method as described in Experiment 1 in the presence of the drug. After 4 days, viral growth was assayed using reverse transcriptase activity as a marker.

[4] = system: D67N + K70R; assay: microbe, parasite or virus in culture; assay type: cell-based, HIV
Description: as §1

[5] = system: T215Y; assay: microbe, parasite or virus in culture; assay type: cell-based, HIV
Description: as §1

[6] = system: L234I; assay: microbe, parasite or virus in culture; assay type: cell-based, HIV; conditions: Human immunodeficiency virus 1, MT4, 96 h
Description: as §1

[7] = system: Y181C; assay: microbe, parasite or virus in culture; assay type: cell-based, HIV; conditions: Human immunodeficiency virus 1, MT4, 96 h
Description: as §1

[8] = system: F227C; assay: microbe, parasite or virus in culture; assay type: cell-based, HIV; conditions: Human immunodeficiency virus 1, MT4, 96 h
Description: as §1

[9] = system: NL432 (Wild strain); assay: microbe, parasite or virus in culture; assay type: cell-based, HIV; conditions: Human immunodeficiency virus 1, MT4, 96 h
Description: as §1

[10] = system: T215Y + L234I; assay: microbe, parasite or virus in culture; assay type: cell-based, HIV
Description: as §1

[11] = system: V106A + F227L; assay: microbe, parasite or virus in culture; assay type: cell-based, HIV; conditions: Human immunodeficiency virus 1, MT4, 96 h
Description: as §1

[12] = Human immunodeficiency virus 1, MT4, 96 h

## Nc1ccn([C@H]2CC[C@@H](CO)O2)c(=O)n1 [ddC, dideoxycytidine, reference compound]
[1]
  Week of emergence of resistant mutants: 1 weeks
  Ratio of resistance compared to parent strain: 20 times

## Cc1cn([C@H]2C[C@H](N=[N+]=[N-])[C@@H](CO)O2)c(=O)[nH]c1=O [AZT, azidodeoxythymidine, reference compound]
[2]; Human immunodeficiency virus 1, IIIB, MT4, read-out: inhibition rate Y of the other anti-HIV compound
  inhibition at 0.0008 µg/mL: 43.4%

## CC(C)c1nc(COC(N)=O)n(Cc2ccncc2)c1Sc1cc(Cl)cc(Cl)c1 [CDIMI, 2-carbamoyloxymethyl-5-(3,5-dichlorophenylthio)-4-iropropyl-1-(pyridin-4-yl) methyl-1H-imidazole]
[3]
  cross resistance: do not show cross resistance
[1]
  Week of emergence of resistant mutants: 4 weeks
  Ratio of resistance compared to parent strain: 10 times
[4]; D67N plus K70R
  sensitivity of strain: equivalent to that of the wild strain
[4]; [12]
  EC50: 0.31 ng/mL (≈ 0.687 nM)
  EC90: 1 ng/mL (≈ 2.22 nM)
[5]; [12]
  EC50: 0.17 ng/mL (≈ 0.377 nM)
  EC90: 0.4 ng/mL (≈ 0.886 nM)
[5]; T215Y
  sensitivity of strain: equivalent to that of the wild strain
[6]
  EC50: 6.8 ng/mL (≈ 15.1 nM)
  EC90: 14 ng/mL (≈ 31 nM)
[7]
  EC50: 4.2 ng/mL (≈ 9.3 nM)
  EC90: 18 ng/mL (≈ 39.9 nM)
[8]
  EC50: 2.4 ng/mL (≈ 5.32 nM)
  EC90: 9.8 ng/mL (≈ 21.7 nM)
[9]
  EC50: 0.31 ng/mL (≈ 0.687 nM)
  EC90: 1.1 ng/mL (≈ 2.44 nM)
[10]; [12]
  EC50: 0.69 ng/mL (≈ 1.53 nM)
  EC90: 2.7 ng/mL (≈ 5.98 nM)
[10]; T215Y plus L234I
  sensitivity of strain: sensitive to CDIMI and AZT at the same level as the wild strain's
[11]
  EC50: 117 ng/mL (≈ 259 nM)
  EC90: 310 ng/mL (≈ 687 nM)
[2]; Human immunodeficiency virus 1, IIIB, MT4, read-out: inhibition rate X of CDIMI
  inhibition at 0.005 µg/mL: 99.6%
[2]; ddI 0 ng/ml (Table 4), lines in order CDIMI 5, 2.5, 1.25, 0.625, 0.313, 0.16, 0.08 ng/ml, 7200 min
  reverse transcriptase inhibition rate (%): 99.01%
